Data on 6 compounds can be found in patent US20100035297A1, “METHODS AND COMPOSITIONS FOR VASCULOGENIC POTENTIAL DETERMINATION” (INDIANA UNIVERSITY RESEARCH AND TECHNOLOGY CORPORATION, priority 2008, published 2010).

Common to all, as to assay type: cell-based, human
Test [1] deals with vascular network formation by EC on ASC monolayer. The experiment in a line: Vascular network formation (VNF) in EC-ASC co-culture. The conditions noted are these: 6 days. As to the method: Medium with the same supplements were exchange at day 3. At day 6, wells with the co-cultures were fixed with methanol, stained for human CD31 antigen; 5-9 pictures/well at 4× were taken under fluorescent microscope and were analyzed for total tube length and branch points.
Co-culture of EC and ASC: ASCs were plated on culture plastic at a density of 60×10^3 cells/cm^2 in EBM-2/5% FBS media. In most experiments, ASCs were allowed to attach to the plates for three hours and then ECs from the indicated sources were plated on the top of ASC monolayer at densities ranging from 625 to 10,000 cells/cm^2. Cells were cultured in EBM-2/5% FBS for six days with media change at day 3. In a separate set of experiments, ASCs at 60×10^3 cells/cm^2 and CBD-ECs at 5×10^3 cells/cm^2 were premixed in EBM-2/5% FBS prior to plating.
In experiments assessing the role of various factors on EC-ASC interactions, co-cultures were incubated for 6 days in EBM-2/5% FBS media supplemented with: (1) neutralizing IgGs to: VEGF (RnD Systems, 2 μg/ml), HGF (RnD Systems, 2 μg/ml) or corresponding control mouse and goat IgGs (RnD Systems); (2) 10 μM GM6001 (Millipore, Billerica, Mass.), an inhibitor of MMP activity with a wide range of activity; (3) 50 μM AG1296 (Alexis, San Diego, Calif.), an inhibitor of PDGF receptor β activity; (4) and DMSO, which was used to dilute GM6001 and AG1296, as a negative control. Test cultures were exposed to the varying media conditions for six days.
(§1) Co-culture of ECs on ASC, NHDF and smooth muscle cell monolayers: Either ASCs, NHDFs, CASMCs, or AoSMCs were plated at a density of 60×10^3 cells/cm^2 in EBM-2/5% FBS media, three hours prior to overlaying them with 5×10^3 cells/cm^2 of CBD-ECs as previously described. The mixed cultures were incubated for six days with a routine media change at day 3. In experiments evaluating the effect of ASC conditioned media (ASC-CM) or added growth factors on vascular network formation, cells were cultured in EBM-2/5% FBS media that was either premixed with ASC-CM at a 1:1 ratio or supplemented with VEGF or HGF (10 ng/ml) as single growth factor controls. To generate ASC-CM, ASCs were grown to confluence in EGM-2mv in T75 flasks, followed by media replacement with EBM-2/5% FBS. After one day, 10 ml fresh EBM-2/5% FBS media was applied and removed after 72 hours conditioning. ASC-CM was collected, centrifuged at 300 g for five minutes, and supernatants frozen at 80° C. Cell number at the time of media collection was determined using hemocytometer.

A further test concerns ASCs. The experiment in a line: hASC mitogenic response to individual growth factors. The conditions noted are these: factor added to basal medium, 10 pg to 10 ng, 4 days. How it is done: Evaluation of hASC Mitogenic Response to Individual Growth Factors: Freshly isolated ASCs were adhered on cell culture plastic for 2 days before harvesting attached cells with 0.05% trypsin/EDTA. Cells were seeded at 3×10^3 cells/cm^2 in 12-well plates and allowed to attach overnight in EBM-2/5% FBS medium, which was then replaced with EBM-2/5% FBS alone (control) or EBM-2/5% FBS supplemented with basic fibroblast growth factor (bFGF), epidermal growth factor (EGF), or platelet-derived growth factor (PDGF)-BB individually at final concentrations of 10 pg, 100 pg, 1 ng, or 10 ng each or the mixture of all of these, each at the specified concentration. Cells were cultured for 4 days, with a medium change after 48 hours, and then detached using 0.05% trypsin/EDTA, and viable cells were counted using a hemacytometer and trypan blue. Proliferation data are presented as the ratio of cells per well supplemented with growth factor to cells per well in control media.

The test system of a further test is EC+fibroblast co-culture. The experiment in a line: VNF by ECs co-cultured on fibroblast (NHDF) monolayer. The conditions noted are these: growth factor 10 ng/ml, 6 days; control 0.54±0.1. As to the method:
as §1

The test system of another test is EC+CASMC co-culture. In words: VNF by ECs co-cultured on CASMC monolayer. Conditions: growth factor 10 ng/ml, 6 days; control 0.37±0.13. How it is done:
as §1

Regarding `COc1cc2ncc(-c3ccccc3)nc2cc1OC` [AG1296], in test [1] (50 μM, DMSO control 5.29±0.31), the total tube length was determined as 1.07±0.14 mm/mm^2. Besides, in test [1] (50 μM, DMSO control 5.88±0.67), the “degree of network branching” value is on record as 0.26±0.06 branches/mm^2.

In test [1] (10 μM, DMSO control 4.24±0.31), `CNC(=O)[C@H](Cc1c[nH]c2ccccc12)NC(=O)[C@@H](CC(=O)NO)CC(C)C` [GM6001] came in with a total tubes length of 2.59±0.05 mm/mm^2. Moreover, in test [1] (10 μM, DMSO control 5.86±0.79), the “degree of network branching” value is given as 2.45±0.17 per mm^2.

Regarding “EGF: epidermal growth factor (NSDSECPLSHDGYCLHDGVCMYIEALDKYACNCVVGYIGERCQYRDLKWWELR; UniProt P01133 971-1023, looked up)”, the “effect on ASC proliferation” value in the test on ASCs is on record as “strong mitogenic effects”.

With “HGF: hepatocyte growth factor, single growth factor supplement”, the total tube length with EC+fibroblast co-culture is recorded as 1.0±0.02 mm/mm^2; in the test with EC+CASMC co-culture, 0.74±0.21 mm/mm^2.

As to VEGF, in test [1] (EC-ASC co-culture, growth factor 10 ng/ml, vs control media), the “increase of total tube length” value is 76%. Besides, the figures for the total tube length in the test on EC+fibroblast co-culture and in the test with EC+CASMC co-culture were 3.2±0.4 mm/mm^2 and 0.9±0.18 mm/mm^2, respectively.

With bFGF: basic fibroblast growth factor, the “effect on ASC proliferation” value in the test with ASCs was “strong mitogenic effects”.
